IC50, Kd and DC50 data for nine molecules are collected here from patent US20250115598A1 (Anaxis Pharma Pty Ltd, priority 2021, published 2025).

The subject of assay [1] is Immortalised Mouse Dermal Fibroblasts (MDFs). In words: Cellular assay: inhibition of TSI induced necroptosis, CellTitre-Glo viability. To be noted: Mus musculus, Fibroblast; MDF, 3 hours TSI cocktail, Table 27; read-out: Inhibition of TSI-induced necroptosis (IC50 cell-based assay) in MDF. An outline of the steps: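 Necroptosis induced for 3 h with TSI: rhTNF 100 ng/ml, Smac mimetic 500 nM, caspase inhibitor IDN-6556 10 μM. Mouse dermal fibroblasts had received compound (36 μM top, ten three-fold steps) 30 min beforehand. ATP-based viability scaled between untreated and TSI-only wells; IC50 taken as 4-parameter curve inflection.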

The target in the next assay is human MLKL (full length) (Homo sapiens (Human), UniProt Q8NB16). The assay can be described thus: KINOMEscan binding assay, human MLKL (full length). The settings on record: hMLKL, Table 25; read-out: MLKL (KD). The method in brief: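 Active-site competition binding: DNA-tagged kinase (T7 phage fusion from BL21-derived E. coli lysate, or HEK-293-expressed) captured on immobilized-ligand beads, with bound kinase in the eluate quantified by qPCR. Compounds ran as 11-point 3-fold dilutions, 1% DMSO, top 30,000 nM for most. Kd came from a Hill fit (slope −1).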
Sequence of human MLKL (full length) (Q8NB16 whole entry, the tested form may be a part): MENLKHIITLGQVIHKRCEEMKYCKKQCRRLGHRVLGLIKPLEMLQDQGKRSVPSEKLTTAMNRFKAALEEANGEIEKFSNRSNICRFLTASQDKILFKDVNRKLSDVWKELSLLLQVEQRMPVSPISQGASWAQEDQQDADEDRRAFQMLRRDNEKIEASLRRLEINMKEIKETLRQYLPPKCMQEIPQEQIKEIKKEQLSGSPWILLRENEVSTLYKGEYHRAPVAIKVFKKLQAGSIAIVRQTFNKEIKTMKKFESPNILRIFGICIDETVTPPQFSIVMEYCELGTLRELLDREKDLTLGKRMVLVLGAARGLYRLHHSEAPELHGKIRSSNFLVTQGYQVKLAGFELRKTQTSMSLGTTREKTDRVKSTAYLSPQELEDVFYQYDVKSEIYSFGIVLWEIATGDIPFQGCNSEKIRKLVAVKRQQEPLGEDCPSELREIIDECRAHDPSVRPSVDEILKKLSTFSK

A further assay has as its target endogenous MLKL in MDF (Mus musculus (Mouse), UniProt Q9D2Y4). The assay can be described thus: Degradation assay: endogenous MLKL in MDF (western blot). The settings on record: MDF cells, 24 h incubation with compound, MLKL adjusted for loading with GAPDH, normalized to DMSO only control, read-out: Degradation of endogenous MLKL in MDF (DC50 cell-based assay). The method, then: Degradation Assay: Screening Compounds Procedure to Evaluate the Activity of Compounds in Degrading Endogenous MLKL in Human and Mouse Cell
The mouse dermal fibroblast (MDF) cell line was seeded the day before the experiment in a 24-well plate at a cell density of […] per well in a volume of 0.5 mL per well and left to attach overnight. The human monocyte cell line (U937) was seeded on the day of the experiment in a 24-well plate at a cell density of […] per well in a volume of 0.5 mL per well.
The compound was diluted in DMSO with a starting concentration of 10 mM and titrated stepwise with a dilution of 1:5. 0.5 μL of the compound dilution was added to the appropriate well to achieve a final concentration of 10; 2; 0.4; 0.08 and 0.016 μM. A DMSO only well was included as control.
The cells were incubated for 24 h in the presence of the compound at 37° C. and 10% CO2.
After the 24 h incubation period, the medium was removed and cells washed with 0.5 mL PBS. The cells were then lysed directly in 60 μL of 1×SDS gel loading buffer.
The cell lysate was heat-denatured at […] for 10 min. 10 μL of lysate per well were run on 18-well 4-15% Criterion TGX stain free gels (BIO-RAD). The proteins were then transferred onto nitrocellulose membrane with a wet transfer protocol in the Criterion Blotter (BIO-RAD).
Membranes were blocked with 5% skim milk in TBST. Primary antibody against MLKL (clone 3H1, MABC604 Merck) was used at 1:2000 dilution in TBST with 1% BSA and left shaking over night at 4° C. After washes with TBST, the membranes were incubated with goat anti-rat IgG HRP-conjugated antibody (Southern Biotech) in 1% skim milk TBST at 1:10000 dilution for 1 h at room temperature. After TBST washes the bands were imaged on the ChemiDoc MP Imaging System (BIO-RAD) with Immobilion Western Chemiluminescent HRP Substrate Forte (Millipore). The loading control GAPDH was probed for with rabbit anti-GAPDH (CST 14C10) at 1:2000 dilution in 1% BSA TBST over night at 4° C. TBST washes were followed by incubation with goat anti-rabbit IgG HRP-conjugated antibody (Southern Biotech) in 1% skim milk TBST at 1:10000 dilution for 1 h at room temperature followed by TBST washes. The signal was detected as described above.
The band intensity was measured in the ImageLab Software (BIO-RAD) and the MLKL values adjusted for loading with GAPDH. The percentage of degradation was calculated by normalizing the compound treated values to the DMSO only control.
(In western blotting, separated proteins are transferred to a membrane and probed.)

Sequence of endogenous MLKL in MDF (Q9D2Y4 whole entry): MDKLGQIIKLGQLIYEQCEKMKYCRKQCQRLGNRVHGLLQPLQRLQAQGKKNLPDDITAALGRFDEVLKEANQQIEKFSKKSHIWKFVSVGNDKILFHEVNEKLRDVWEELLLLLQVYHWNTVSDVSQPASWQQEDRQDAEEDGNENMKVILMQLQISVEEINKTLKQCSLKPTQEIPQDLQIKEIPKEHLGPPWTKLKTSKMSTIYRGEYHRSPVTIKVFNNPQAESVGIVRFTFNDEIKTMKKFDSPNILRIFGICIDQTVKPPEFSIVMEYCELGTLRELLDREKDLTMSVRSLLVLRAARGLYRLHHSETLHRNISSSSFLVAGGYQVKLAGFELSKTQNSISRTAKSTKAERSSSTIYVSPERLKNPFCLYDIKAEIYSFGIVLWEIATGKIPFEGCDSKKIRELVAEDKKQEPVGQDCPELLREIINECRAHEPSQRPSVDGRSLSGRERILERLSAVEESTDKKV

As a reminder, the IC50 is the concentration at which inhibition is half-maximal. What is called Kd is the free concentration of one partner at which half of the binding sites on the other are occupied at equilibrium, for simple one-to-one binding. Broadly, the DC50 is the concentration at which degradation of the target reaches its halfway point. With `C[C@H](Oc1cc(-c2nn(C)c3c(-c4cnn(C5CCN(C(=O)[C@H]6C[C@H](Nc7cccc8c7C(=O)N(C7CCC(=O)NC7=O)C8=O)C6)C6(CC6)C5)c4)cnc(N)c23)ccc1NS(=O)(=O)C(F)F)c1ccc(F)cc1` (stereo partly drawn) [Compound 1107, N-{4-[4-amino-1-methyl-7-(1-{4-[(1r,3r)-3-{[2-(2,6-dioxopiperidin-3-yl)-1,3-dioxo-2,3-dihydro-1H-isoindol-4-yl]amino}cyclobutanecarbonyl]-4-azaspiro[2.5]octan-7-yl}-1H-pyrazol-4-yl)-1H-pyrazolo[4,3-c]pyridin-3-yl]-2-[(1S)-1-(4-fluorophenyl)ethoxy]phenyl}-1,1-difluoromethanesulfonamide], in assay [1], the IC50 is less than 1000 nM. Besides, the dissociation constant (Kd) at human MLKL (full length) lay in the range of 10 to 1000 nM. In addition, the DC50 at endogenous MLKL in MDF was less than 1000 nM.

As for `C[C@H](Oc1cc(-c2nn(C)c3c(-c4cnn(C5CCN(C(=O)[C@H]6C[C@H](Nc7ccc8c(c7)C(=O)N(C7CCC(=O)NC7=O)C8=O)C6)CC5)c4)cnc(N)c23)ccc1NS(=O)(=O)C(F)F)c1ccc(F)cc1` (stereo partly drawn) [Compound 1094, N-{4-[4-amino-1-methyl-7-(1-{1-[(trans)-3-{[2-(2,6-dioxopiperidin-3-yl)-1,3-dioxo-2,3-dihydro-1H-isoindol-5-yl]amino}cyclobutanecarbonyl]piperidin-4-yl}-1H-pyrazol-4-yl)-1H-pyrazolo[4,3-c]pyridin-3-yl]-2-[(1S)-1-(4-fluorophenyl)ethoxy]phenyl}-1,1-difluoromethanesulfonamide], the IC50 in assay [1] is less than 1000 nM. Also, the Kd at human MLKL (full length) is less than 10 nM. Moreover, the DC50 on endogenous MLKL in MDF was less than 1000 nM.

For the molecule `C[C@H](Oc1cc(-c2nn(C)c3c(-c4cnn(C5CCN(C(=O)[C@H]6C[C@H](Nc7cccc8c7C(=O)N(C7CCC(=O)NC7=O)C8=O)C6)C(C)(C)C5)c4)cnc(N)c23)ccc1NS(=O)(=O)C(F)F)c1ccc(F)cc1` (stereo partly drawn) [Compound 1116, N-{4-[4-amino-7-(1-{2,2-dimethyl-1-[(trans)-3-{[2-(2,6-dioxopiperidin-3-yl)-1,3-dioxo-2,3-dihydro-1H-isoindol-4-yl]amino}cyclobutanecarbonyl]piperidin-4-yl}-1H-pyrazol-4-yl)-1-methyl-1H-pyrazolo[4,3-c]pyridin-3-yl]-2-[(1S)-1-(4-fluorophenyl)ethoxy]phenyl}-1,1-difluoromethanesulfonamide], the IC50 in assay [1] is 1000 to 10000 nM. Moreover, the equilibrium dissociation constant (Kd) on human MLKL (full length) was less than 10 nM. In addition, the half-maximal degradation concentration (DC50) at endogenous MLKL in MDF is less than 1000 nM.

Consider `C[C@H](Oc1cc(-c2nn(C)c3c(-c4cnn(C5CCC(C(=O)N6CC(Nc7cccc8c7C(=O)N(C7CCC(=O)NC7=O)C8=O)C6)CC5)c4)cnc(N)c23)ccc1NS(=O)(=O)C(F)F)c1ccc(F)cc1` (stereo partly drawn) [Compound 1133, N-[4-(4-amino-7-{1-[4-(3-{[2-(2,6-dioxopiperidin-3-yl)-1,3-dioxo-2,3-dihydro-1H-isoindol-4-yl]amino}azetidine-1-carbonyl)cyclohexyl]-1H-pyrazol-4-yl}-1-methyl-1H-pyrazolo[4,3-c]pyridin-3-yl}-2-[(1S)-1-(4-fluorophenyl)ethoxy]phenyl]-1,1-difluoromethanesulfonamide], for which the IC50 in assay [1] is 1000 to 10000 nM. Further, the Kd on human MLKL (full length) lay within 10 to 1000 nM. The DC50 at endogenous MLKL in MDF was less than 1000 nM.

Take `C[C@H](Oc1cc(-c2nn(C)c3c(-c4cnn(C5CCN(C(=O)CC6CCN(c7cccc8c7C(=O)N(C7CCC(=O)NC7=O)C8=O)C6)CC5)c4)cnc(N)c23)ccc1NS(=O)(=O)C(F)F)c1ccc(F)cc1` (stereo partly drawn) [Compound 1053, N-[4-(4-amino-7-{1-[1-(2-{1-[2-(2,6-dioxopiperidin-3-yl)-1,3-dioxo-2,3-dihydro-1H-isoindol-4-yl]pyrrolidin-3-yl}acetyl)piperidin-4-yl]-1H-pyrazol-4-yl}-1-methyl-1H-pyrazolo [4,3-c]pyridin-3-yl)-2-[(1S)-1-(4-fluorophenyl)ethoxy]phenyl]-1,1-difluoromethanesulfonamide]: the IC50 in assay [1] was less than 1000 nM. In addition, on human MLKL (full length), the Kd was in the range of 10 to 1000 nM. Further, on endogenous MLKL in MDF, the DC50 was less than 1000 nM.

For `CN[C@@H](C)C(=O)N[C@H](C(=O)N1CC(NC(=O)CCCCCCCCn2cc(-c3cnc(N)c4c(-c5ccc(NS(=O)(=O)C(F)F)c(O[C@@H](C)c6ccc(F)cc6)c5)nn(C)c34)cn2)C[C@H]1C(=O)Nc1c(F)cccc1F)C(C)(C)C` (stereo partly drawn) [Compound 1090, (2S)-4-[9-(4-{4-amino-3-[4-(difluoromethanesulfonamido)-3-[(1S)-1-(4-fluorophenyl)ethoxy]phenyl]-1-methyl-1H-pyrazolo[4,3-c]pyridin-7-yl}-1H-pyrazol-1-yl)nonanamido]-N-(2,6-difluorophenyl)-1-[(2S)-3,3-dimethyl-2-[(2S)-2-(methylamino)propanamido]butanoyl]pyrrolidine-2-carboxamide], the IC50 in assay [1] is 1000 to 10000 nM. Moreover, the dissociation constant (Kd) on human MLKL (full length) is less than 10 nM. The DC50 at endogenous MLKL in MDF is 1000 to 10000 nM.

On to `C[C@H](Oc1cc(-c2nn(C)c3c(-c4cnn(C5CCN(C(=O)[C@H]6C[C@H](N(C)c7ccc8c(c7)C(=O)N(C7CCC(=O)NC7=O)C8=O)C6)CC5)c4)cnc(N)c23)ccc1NS(=O)(=O)C(F)F)c1ccc(F)cc1` (stereo partly drawn) [Compound 1106, N-{4-[4-amino-1-methyl-7-(1-{1-[(trans)-3-{[2-(2,6-dioxopiperidin-3-yl)-1,3-dioxo-2,3-dihydro-1H-isoindol-5-yl](methyl)amino}cyclobutanecarbonyl]piperidin-4-yl}-1H-pyrazol-4-yl)-1H-pyrazolo[4,3-c]pyridin-3-yl]-2-[(1S)-1-(4-fluorophenyl)ethoxy]phenyl}-1,1-difluoromethanesulfonamide], for which, in assay [1], the IC50 was less than 1000 nM. For the same molecule, at human MLKL (full length), the Kd is less than 10 nM. Also, on endogenous MLKL in MDF, the DC50 is less than 1000 nM.

`Cc1ncsc1-c1ccc(CNC(=O)[C@@H]2C[C@@H](O)CN2C(=O)[C@@H](NC(=O)COCCOc2ccc(-c3cnc(N)c4c(-c5ccc(NS(=O)(=O)C(F)F)c(O[C@@H](C)c6ccc(F)cc6)c5)nn(C)c34)cc2)C(C)(C)C)cc1` [Compound 1049, (2S,4R)-1-[(2S)-2-{2-[2-(4-{4-amino-3-[4-(difluoromethanesulfonamido)-3-[(1S)-1-(4-fluorophenyl)ethoxy]phenyl]-1-methyl-1H-pyrazolo[4,3-c]pyridin-7-yl}phenoxy)ethoxy]acetamido}-3,3-dimethylbutanoyl]-4-hydroxy-N-{[4-(4-methyl-1,3-thiazol-5-yl)phenyl]methyl}pyrrolidine-2-carboxamide]: the IC50 in assay [1] was 1000 to 10000 nM. Further, at human MLKL (full length), the Kd lay in the range of 10 to 1000 nM. The DC50 on endogenous MLKL in MDF is less than 1000 nM.

In the case of `C[C@H](Oc1cc(-c2nn(C)c3c(-c4cnn(C5CCN(C(=O)[C@]6(F)C[C@@H](Nc7cccc8c7C(=O)N(C7CCC(=O)NC7=O)C8=O)C6)CC5)c4)cnc(N)c23)ccc1NS(=O)(=O)C(F)F)c1ccc(F)cc1` (stereo partly drawn) [Compound 1111, N-{4-[4-amino-1-methyl-7-(1-{1-[(cis)-3-{[2-(2,6-dioxopiperidin-3-yl)-1,3-dioxo-2,3-dihydro-1H-isoindol-4-yl]amino}-1-fluorocyclobutane-carbonyl]piperidin-4-yl}-1H-pyrazol-4-yl)-1H-pyrazolo[4,3-c]pyridin-3-yl]-2-[(1S)-1-(4-fluorophenyl)ethoxy]phenyl}-1,1-difluoro-methanesulfonamide], the IC50 in assay [1] is less than 1000 nM. Besides, at human MLKL (full length), the Kd is 10 to 1000 nM. Moreover, the DC50 at endogenous MLKL in MDF was less than 1000 nM.
